In the supplement of paper PMC10307832:

Columns and labels:
Assay in all cases: relative viability (nuclei count vs DMSO), 5 days (fraction); higher = more cells survive
Lapatinib + Pemetrexed = compound: CS(=O)(=O)CCNCc1ccc(-c2ccc3ncnc(Nc4ccc(OCc5cccc(F)c5)c(Cl)c4)c3c2)o1 [Lapatinib] + Nc1nc2[nH]cc(CCc3ccc(C(=O)N[C@@H](CCC(=O)O)C(=O)O)cc3)c2c(=O)[nH]1 [Pemetrexed] (partner 0.2 µM)
Procedure, shortened: (§1)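 After 5 days of treatment, lung cancer cells in 1536-well plates were fixed and stained in a single step (final 0.05% Triton X-100, 1% formaldehyde, 1 ug/ml Hoechst) and their nuclei counted on 4× images. Treatment had been applied by pin tool the day after seeding as one drug alone or as a fixed anchor-drug dose with five library-drug doses (not always all listed) in √10 steps. Relative viability is the nuclei count of treated wells divided by that of vehicle wells, and values are medians of duplicate plates.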

Wnt-C59 + Linsitinib = compound: CC1=NC=CC(=C1)C2=CC=C(C=C2)CC(=O)NC3=CC=C(C=C3)C4=CN=CC=C4 [Wnt-C59] + C[C@]1(O)C[C@@H](c2nc(-c3ccc4ccc(-c5ccccc5)nc4c3)c3c(N)nccn32)C1 [Linsitinib] (partner 1 µM)
Procedure, shortened: as §1

Wnt-C59 + Bortezomib = compound: CC1=NC=CC(=C1)C2=CC=C(C=C2)CC(=O)NC3=CC=C(C=C3)C4=CN=CC=C4 [Wnt-C59] + CC(C)C[C@H](NC(=O)[C@H](Cc1ccccc1)NC(=O)c1cnccn1)B(O)O [Bortezomib] (partner 0.002 µM)
Procedure, shortened: as §1

Wnt-C59 + Pictilisib = compound: CC1=NC=CC(=C1)C2=CC=C(C=C2)CC(=O)NC3=CC=C(C=C3)C4=CN=CC=C4 [Wnt-C59] + CS(=O)(=O)N1CCN(Cc2cc3nc(-c4cccc5[nH]ncc45)nc(N4CCOCC4)c3s2)CC1 [Pictilisib] (partner 1 µM)
Procedure, shortened: as §1

Row | Cell Line | relative viability (Lapatinib + Pemetrexed; first compound 0.02 µM) | relative viability (Lapatinib + Pemetrexed; first compound 0.06325 µM) | relative viability (Lapatinib + Pemetrexed; first compound 0.2 µM) | relative viability (Lapatinib + Pemetrexed; first compound 0.6325 µM) | relative viability (Lapatinib + Pemetrexed; first compound 2 µM) | relative viability (Wnt-C59 + Linsitinib; first compound 0.001 µM) | relative viability (Wnt-C59 + Linsitinib; first compound 0.01 µM) | relative viability (Wnt-C59 + Linsitinib; first compound 0.03162 µM) | relative viability (Wnt-C59 + Linsitinib; first compound 0.1 µM) | relative viability (Wnt-C59 + Bortezomib; first compound 0.001 µM) | relative viability (Wnt-C59 + Bortezomib; first compound 0.01 µM) | relative viability (Wnt-C59 + Bortezomib; first compound 0.03162 µM) | relative viability (Wnt-C59 + Bortezomib; first compound 0.1 µM) | relative viability (Wnt-C59 + Pictilisib; first compound 0.001 µM) | relative viability (Wnt-C59 + Pictilisib; first compound 0.01 µM) | relative viability (Wnt-C59 + Pictilisib; first compound 0.03162 µM) | relative viability (Wnt-C59 + Pictilisib; first compound 0.1 µM)
1 | BEN | 0.409 | 0.847 | 0.683 | 0.802 | 0.71 | 0.915 | 0.948 | 1.02 | 0.88 | 0.821 | 0.88 | 1.03 | 0.878 | 0.524 | 0.667 | 0.613 | 0.596
2 | NCI-H1666 | 0.858 | 0.789 | 0.851 | 0.841 | 0.67 | 0.941 | 0.682 | 0.885 | 0.874 | 0.797 | 0.749 | 0.807 | 0.89 | 0.43 | 0.218 | 0.479 | 0.477
3 | LCLC-103H | 0.558 | 0.437 | 0.47 | 0.494 | 0.425 | 1.08 | 1.08 | 0.986 | 1.09 | 1.04 | 1.12 | 1.06 | 1.1 | 0.663 | 0.62 | 0.634 | 0.651
4 | NCI-H2009 | 0.972 | 1.02 | 1.05 | 0.98 | 0.998 | 1.17 | 1.15 | 1.19 | 1.12 | 1.07 | 1.06 | 1.03 | 0.993 | 0.744 | 0.825 | 0.841 | 0.784
